Measured values reported in patent publication US4618618A, “Compounds and compositions” (priority 1981, dated 1986).
Counter-ions that a name gives are not always drawn. Like-named read-outs stand apart in the source and are kept apart here.

Legend:
[1] = cited from earlier work
[2] = Level of levamisole in the blood of cattle after injection (high pressure liquid chromatography)
[3] = system: Ostertagia, Trichostrongylus and Haemonchus; assay: Anthelmintic efficacy in infected sheep (parasite counts at slaughter); type: in vivo
Protocol: To ensure that the compounds were tested in heavily infected animals sheep harbouring a heavy naturally acquired parasitic infection were chosen and further infected with larvae of the species Ostertagia, Trichostrongylus and Haemonchus. The infections were allowed to reach maturity. […] A second group of sheep, the controls, were injected with an aqueous solution of levamisole dihydrogen phosphate at a dose rate equivalent to 6 mg of levamisole base per kilogram of animal body weight.
Half of the sheep in each group were slaughtered 7 days after treatment and the parasites in the abomasum, small intestine, large intestine and lungs were counted.

[4] = Level of nitroxynil in the blood of cattle after injection (high pressure liquid chromatography)
[5] = bovine, in vivo
helminth = conditions: ruminants sheep and cattle; cited from earlier work
in vivo = conditions: bovine, 10 mg/kg
liver fluke = conditions: mature and immature liver fluke; cited from earlier work
[6] = cattle, injected solution in polyethylene glycol 200 (Example 2 (a)), 17 mg of the salt/kg, each of four animals
[7] = compared with levamisole dihydrogen phosphate

SMILES: c1ccc(C2CN3CCSC3=N2)cc1 (racemic) [tetramisole, D,L-2,3,5,6-Tetrahydro-6-phenylimidazo[2,1-b]thiazole]
- base catalysed hydrolysis [1]: subject to base catalysed hydrolysis

SMILES: N#Cc1cc(I)c(O)c([N+](=O)[O-])c1.c1ccc([C@H]2CN3CCSC3=N2)cc1 [Example 1, L-2,3,5,6-tetrahydro-6-phenylimidazo[2,1-b]thiazolium 4-cyano-2-iodo-6-nitrophenoxide]
- level of levamisole in the blood 4 hours after the injection, % of the maximum level ([2]; cattle, injected solution in polyethylene glycol 200 (Example 2 (a)), 17 mg of the salt/kg, 4 hours): at least 50%
- time to maximum level of levamisole in the blood [2, 6]: approximately 2 hours
- duration of the level of levamisole in the blood (in words) [2, 7]: maintained for a longer period of time
- rise of blood level of levamisole to a maximum (in words) [2, 7]: much more slowly
- rise of blood level of levamisole to a maximum (in words) ([2]; compared with levamisole dihydrogen phosphate, listed as nitroxynil salt of levamisole): more slowly
- levamisole levels obtained in the blood (in words) ([2]; parenteral administration): therapeutic levels
- eradication of the helminth infection ([3]; sheep slaughtered 7 days after treatment, injected 14.5 mg of the salt/kg in polyethylene glycol 200): either completely or essentially completely eradicated
- eradication of the helminth infection ([3]; sheep slaughtered 28 days after treatment, injected 14.5 mg of the salt/kg in polyethylene glycol 200): either completely or essentially completely eradicated
- time to maximum level of nitroxynil in the blood [4, 6]: approximately 24 hours
- rise of blood level of nitroxynil to a maximum (in words) ([4]; compared with nitroxynil N-ethyl-D-glucamine salt): much more slowly
- nitroxynil levels obtained in the blood (in words) ([4]; parenteral administration): therapeutic levels

SMILES: O=P(O)(O)O.c1ccc([C@H]2CN3CCSC3=N2)cc1 [levamisole dihydrogen phosphate, reference compound]
- time to maximum level of levamisole in the blood ([5]; 6 mg/kg): ≤ 1 h
- course of the level of levamisole in the blood (in words) ([5]; sc): quickly rises to a maximum and quickly declines
- eradication of the helminth infection ([3]; sheep slaughtered 7 days after treatment, injected aqueous solution, 6 mg levamisole base/kg): either completely or essentially completely eradicated
- eradication of the helminth infection ([3]; sheep slaughtered 28 days after treatment, injected aqueous solution, 6 mg levamisole base/kg): either completely or essentially completely eradicated

SMILES: c1ccc([C@H]2CN3CCSC3=N2)cc1 [levamisole, L-2,3,5,6-tetrahydro-6-phenylimidazo[2,1-b]thiazole]
- base catalysed hydrolysis [1]: subject to base catalysed hydrolysis
- activity as an anthelmintic agent relative to tetramisole (helminth): approximately twice as active as tetramisole

SMILES: N#Cc1cc(I)c(O)c([N+](=O)[O-])c1 [nitroxynil N-ethyl-D-glucamine salt]
- Tmax (in vivo): 4 h

SMILES: N#Cc1cc(I)c(O)c([N+](=O)[O-])c1 [nitroxynil, 4-cyano-2-iodo-6-nitrophenol]
- activity against liver fluke (liver fluke): effective against both mature and immature liver fluke
